# From PubChem BioAssay AID330 (DTP/NCI, 2004)
# Where “and” joins values, the source holds several entries; their conditions need not be identical. Equal values may be shown once. Inconclusive results and toxic doses are left out. Square brackets hold non-standard residues; d marks the D form. Peptide text beside a SMILES is read from it. ξ: configuration not given here. ξA = CC(N)C(=O)O
# Test system: P388 leukemia ip, CD2F1 mice, survival T/C
# Assay: NCI In Vivo Anticancer Drug Screen. Data for tumor model P388 Leukemia (intraperitoneal) in CD2F1 (CDF1) mice
# Conditions: endpoint: median survival time, higher = longer survival
# Summary of the method: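 Mice carrying the transplanted tumor received test compound or vehicle. Survival was recorded in each group, and the value is the treated-group measurement divided by that of the vehicle-treated control group.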
# [1] = dose: 50.0 mg/kg/injection, schedule: Q01DX005 (ip), vehicle: saline with Tween-80
# [2] = dose: 100.0 mg/kg/injection, schedule: Q01DX005 (ip), vehicle: saline with Tween-80
# [3] = dose: 200.0 mg/kg/injection, schedule: Q01DX005 (ip), vehicle: saline with Tween-80
# [4] = dose: 50.0 mg/kg/injection, schedule: Q01DX005 (ip), vehicle: saline
# [5] = dose: 100.0 mg/kg/injection, schedule: Q01DX005 (ip), vehicle: saline
# [6] = dose: 200.0 mg/kg/injection, schedule: Q01DX005 (ip), vehicle: saline
# [7] = dose: 100.0 mg/kg/injection, schedule: Q01DX009 (ip), vehicle: Klucel (hydroxypropylcellulose) (HPC)
# [8] = dose: 200.0 mg/kg/injection, schedule: Q01DX009 (ip), vehicle: Klucel (hydroxypropylcellulose) (HPC)
# [9] = dose: 50.0 mg/kg/injection, schedule: Q01DX009 (ip), vehicle: Klucel (hydroxypropylcellulose) (HPC)
structure (smiles),measurement,setting,value
CC(C)CC(C)N(C(=S)S)C(C)CC(C)C.[Zn+2] (stereo not given),T/C,[1],100 % of control
same,T/C,[2],104 % of control
same,T/C,[3],100 % of control
CN(C)CCOc1cccc2c1C(=O)c1ccccc1C2=O,T/C,"dose: 12.5 mg/kg/injection, schedule: Q01DX009 (ip), vehicle: water",113 % of control
same,T/C,"dose: 25.0 mg/kg/injection, schedule: Q01DX009 (ip), vehicle: water",105 % of control
same,T/C,"dose: 50.0 mg/kg/injection, schedule: Q01DX009 (ip), vehicle: water",107 % of control
same,T/C,"dose: 100.0 mg/kg/injection, schedule: Q01DX009 (ip), vehicle: water",109 % of control
COc1cccc(C(=O)N/N=C(\C#N)c2cccc(OC)c2)c1,T/C,[1],97 % of control
same,T/C,[2],94 % of control
COc1cc2c(cc1[N+](=O)[O-])C(=O)CCCC2,T/C,"dose: 100.0 mg/kg/injection, schedule: Q01DX009 (sc), vehicle: olive oil, sesame oil, peanut oil",104 % of control
same,T/C,"dose: 200.0 mg/kg/injection, schedule: Q01DX009 (sc), vehicle: olive oil, sesame oil, peanut oil",100 % of control
same,T/C,"dose: 400.0 mg/kg/injection, schedule: Q01DX009 (sc), vehicle: olive oil, sesame oil, peanut oil",107 % of control
CN1C(=O)C(O)N=C(c2ccccc2)c2cc(Cl)ccc21 (stereo not given),T/C,"dose: 50.0 mg/kg/injection, schedule: Q01DX009 (ip), vehicle: saline with Tween-80",101 % of control
same,T/C,"dose: 100.0 mg/kg/injection, schedule: Q01DX009 (ip), vehicle: saline with Tween-80",105 % of control
same,T/C,"dose: 200.0 mg/kg/injection, schedule: Q01DX009 (ip), vehicle: saline with Tween-80",117 % of control
COC(=O)c1cc(O)c(O)c(O)c1,T/C,[1],105 % of control
same,T/C,[2],108 % of control
same,T/C,[3],119 % of control
CC(NC(=O)CNC(=O)CNC(=O)CNC(=O)CN)C(=O)O (stereo not given) (H-GGGG[ξA]-OH),T/C,[4],100 % of control
same,T/C,[5],103 % of control
same,T/C,[6],101 % of control
O=C(NC(C(=O)O)c1ccc(CCl)cc1)c1ccccc1 (stereo not given),T/C,[1],107 % of control
same,T/C,[2],105 % of control
CC(=O)NC[Si](C)(C)C,T/C,"dose: 60.0 mg/kg/injection, schedule: Q01DX005 (ip), vehicle: saline",93 % of control
same,T/C,"dose: 120.0 mg/kg/injection, schedule: Q01DX005 (ip), vehicle: saline",96 % of control
same,T/C,"dose: 240.0 mg/kg/injection, schedule: Q01DX005 (ip), vehicle: saline",103 % of control
O=c1c2nccnc2nc2n1CCCS2,T/C,[7],99 % of control
same,T/C,[8],100 % of control
Cn1c2nc3ccccc3c-2nc2ccccc21,T/C,"dose: 1.56 mg/kg/injection, schedule: Q01DX009 (ip), vehicle: water",100 % of control
same,T/C,"dose: 3.13 mg/kg/injection, schedule: Q01DX009 (ip), vehicle: water",92 % of control
same,T/C,"dose: 6.25 mg/kg/injection, schedule: Q01DX009 (ip), vehicle: water",88 % of control
same,T/C,"dose: 12.5 mg/kg/injection, schedule: Q01DX009 (ip), vehicle: Klucel (hydroxypropylcellulose) (HPC)",92 % of control
same,T/C,"dose: 25.0 mg/kg/injection, schedule: Q01DX009 (ip), vehicle: Klucel (hydroxypropylcellulose) (HPC)",99 % of control
same,T/C,[9],109 % of control
same,T/C,[7],106 % of control
same,T/C,[8],107 % of control
CCC(C)C(=O)C(Br)C(Br)c1ccccc1 (stereo not given),T/C,[9],101 % of control
same,T/C,[7],100 % of control
same,T/C,[8],101 % of control
BrCCC[n+]1ccc2ccccc2c1-c1nccc2ccccc12,T/C,"dose: 3.12 mg/kg/injection, schedule: Q01DX001 (ip), vehicle: saline",104 % of control
same,T/C,"dose: 6.25 mg/kg/injection, schedule: Q01DX001 (ip), vehicle: saline",98 % of control
same,T/C,"dose: 12.5 mg/kg/injection, schedule: Q01DX001 (ip), vehicle: saline",101 % of control and 115 % of control
COc1ccc(/C=C(\C(C)=O)C(=O)CCN(C)C)cc1,T/C,[4],95 % of control
same,T/C,[5],105 % of control
same,T/C,[6],115 % of control
O=C1c2cccc3cc([N+](=O)[O-])cc(c23)C(=O)N1CCN1CCCC1,T/C,"dose: 1.56 mg/kg/injection, schedule: Q01DX009 (ip), vehicle: saline with Tween-80",118 % of control
same,T/C,"dose: 12.5 mg/kg/injection, schedule: Q01DX009 (ip), vehicle: saline with Tween-80",150 % of control
CCCCCCCCC1OCN2CCCCC12 (stereo not given),T/C,[4],108 % of control
same,T/C,[5],102 % of control
same,T/C,[6],100 % of control
